Test results reported in ChEMBL document CHEMBL5096162, “A review on ferulic acid and analogs based scaffolds for the management of Alzheimer's disease” (Eur J Med Chem, 2021).
pIC50: −log10 of the molar value.

Legend:
[1] = Metal chelating activity assessed as Fe2+ -ferrozoine complex formation incubated for 10 mins followed by ferrozine addition and further incubated for 10 mins by spectrophotometric assay; settings: time 20.0 min
[2] = Antioxidant activity assessed as ABTS radical cation scavenging activity measured every minute for 15 mins by spectrophotometeric analysis; type: functional
[3] = Antioxidant activity of compound assessed as trolox equivalent of AAPH radical scavenging activity preincubated for 15 mins followed by AAPH addition and measured for 120 mins by ORAC-FL assay; type: functional; settings: time 135.0 min
[4] = Antioxidant activity assessed as DPPH radical scavenging activity measured for 45 mins by spectrophotometric analysis; type: functional
[5] = Antioxidant activity assessed as GO radical cation scavenging activity measured for 30 mins by spectrophotometeric analysis; type: functional
[6] = target: T1, Cholinesterase (Homo sapiens, UniProt P06276); experiment: Inhibition of human BuchE preincubated for 30 mins followed by substrate addition using butyrylthiocholine iodide as substrate by Ellman's method
T1 sequence (P06276 whole entry): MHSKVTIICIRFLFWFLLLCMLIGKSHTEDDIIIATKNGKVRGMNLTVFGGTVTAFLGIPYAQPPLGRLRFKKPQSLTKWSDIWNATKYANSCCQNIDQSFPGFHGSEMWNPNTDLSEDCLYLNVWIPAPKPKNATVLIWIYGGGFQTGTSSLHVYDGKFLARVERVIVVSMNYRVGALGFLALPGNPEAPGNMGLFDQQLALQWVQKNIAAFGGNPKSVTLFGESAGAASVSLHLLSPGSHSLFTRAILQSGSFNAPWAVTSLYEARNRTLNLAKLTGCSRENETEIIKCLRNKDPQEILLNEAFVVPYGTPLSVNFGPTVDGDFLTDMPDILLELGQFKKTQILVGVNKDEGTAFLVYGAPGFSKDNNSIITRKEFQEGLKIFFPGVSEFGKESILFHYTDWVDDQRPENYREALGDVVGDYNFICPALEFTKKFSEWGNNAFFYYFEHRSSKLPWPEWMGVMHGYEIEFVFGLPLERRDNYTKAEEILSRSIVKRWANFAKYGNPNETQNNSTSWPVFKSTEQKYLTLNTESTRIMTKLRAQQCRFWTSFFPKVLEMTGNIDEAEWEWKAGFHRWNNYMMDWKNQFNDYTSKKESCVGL

[7] = target: T2, Acetylcholinesterase (Electrophorus electricus, UniProt O42275); experiment: Inhibition of electric eel AChE preincubated for 5 mins followed by substrate addition using acetylthiocholine iodide as substrate by Ellman's method
T2 sequence (O42275 whole entry): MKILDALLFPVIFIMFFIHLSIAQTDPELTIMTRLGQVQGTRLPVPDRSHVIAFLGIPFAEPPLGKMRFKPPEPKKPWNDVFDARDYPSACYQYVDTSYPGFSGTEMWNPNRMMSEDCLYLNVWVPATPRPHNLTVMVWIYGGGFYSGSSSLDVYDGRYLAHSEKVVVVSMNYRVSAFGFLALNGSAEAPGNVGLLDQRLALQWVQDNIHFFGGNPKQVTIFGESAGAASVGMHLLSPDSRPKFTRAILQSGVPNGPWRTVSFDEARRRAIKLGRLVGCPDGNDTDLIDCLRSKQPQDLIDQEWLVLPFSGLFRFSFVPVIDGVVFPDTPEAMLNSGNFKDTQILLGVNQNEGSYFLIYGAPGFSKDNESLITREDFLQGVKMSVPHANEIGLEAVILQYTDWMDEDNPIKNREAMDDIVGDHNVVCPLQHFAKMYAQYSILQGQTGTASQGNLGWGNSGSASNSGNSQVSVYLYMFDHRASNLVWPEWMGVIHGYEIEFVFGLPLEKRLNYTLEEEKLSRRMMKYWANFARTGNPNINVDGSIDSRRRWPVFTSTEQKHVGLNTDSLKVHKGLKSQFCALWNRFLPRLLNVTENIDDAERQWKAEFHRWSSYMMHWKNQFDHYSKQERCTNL

[8] = Antioxidant activity assessed as DPPH radical scavenging activity incubated for 30 mins by UV-Vis spectrophotometric analysis; type: functional
[9] = Antioxidant activity assessed as trolox equivalent of ABTS radical cation scavenging activity measured after 6 mins by UV spectrophotometeric analysis; type: functional
[10] = Antioxidant activity of compound assessed as trolox equivalent of AAPH radical scavenging activity preincubated for 15 mins followed by AAPH addition and measured every 1 min for 60 mins by ORAC-FL assay; type: functional; settings: time 75.0 min
[11] = Antioxidant activity assessed as DPPH radical scavenging activity at 200 uM incubated for 2 hrs in dark by spectrophotometric analysis; type: functional
[12] = Antioxidant activity assessed as DPPH radical scavenging activity measured for 30 mins in dark by UV-Vis spectrophotometric analysis; type: functional
[13] = Antioxidant activity assessed as trolox equivalent of ORAC radical scavenging activity by ORAC-FL assay; type: functional
[14] = target: Amyloid-beta precursor protein (Homo sapiens) (UniProt P05067); experiment: Inhibition of amyloid beta (1 to 42) (unknown origin) self aggregation assessed as reduction in fluorescence intensity at 80 uM incubated for 24 hrs by ThT-based fluorimetric assay
Amyloid-beta precursor protein (Homo sapiens), sequence (P05067 whole entry): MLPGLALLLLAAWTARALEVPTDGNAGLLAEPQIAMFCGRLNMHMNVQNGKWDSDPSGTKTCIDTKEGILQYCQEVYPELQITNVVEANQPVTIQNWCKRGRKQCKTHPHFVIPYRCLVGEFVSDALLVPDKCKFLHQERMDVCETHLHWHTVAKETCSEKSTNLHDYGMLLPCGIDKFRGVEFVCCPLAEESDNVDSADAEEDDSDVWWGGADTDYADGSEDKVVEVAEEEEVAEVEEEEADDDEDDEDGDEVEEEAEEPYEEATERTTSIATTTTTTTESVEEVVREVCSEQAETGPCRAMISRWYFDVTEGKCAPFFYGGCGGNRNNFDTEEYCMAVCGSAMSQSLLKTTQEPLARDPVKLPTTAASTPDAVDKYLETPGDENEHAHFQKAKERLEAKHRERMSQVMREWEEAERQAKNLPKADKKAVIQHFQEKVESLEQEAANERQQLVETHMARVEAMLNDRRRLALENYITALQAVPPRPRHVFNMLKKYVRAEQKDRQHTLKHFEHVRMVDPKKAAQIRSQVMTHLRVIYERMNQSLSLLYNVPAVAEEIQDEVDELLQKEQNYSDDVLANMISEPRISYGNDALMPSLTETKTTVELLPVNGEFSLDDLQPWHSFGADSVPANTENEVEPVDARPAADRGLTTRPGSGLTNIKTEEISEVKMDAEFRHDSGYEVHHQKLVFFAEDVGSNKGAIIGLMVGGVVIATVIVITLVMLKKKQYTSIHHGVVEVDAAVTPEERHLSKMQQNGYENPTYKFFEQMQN

[15] = target: T2, Acetylcholinesterase; experiment: Inhibition of electric eel AChE preincubated for 15 mins followed by substrate addition using acetylthiocholine iodide as substrate by Ellman's method
[16] = Antioxidant activity assessed as DPPH radical scavenging activity at 1 mM incubated for 30 mins by microplate reader method; type: functional
[17] = target: Acetylcholinesterase (Electrophorus electricus) (UniProt O42275); experiment: Inhibition of electric eel AChE at 1 uM by Ellman's method
Acetylcholinesterase (Electrophorus electricus), sequence (O42275 24-633 limits assumed): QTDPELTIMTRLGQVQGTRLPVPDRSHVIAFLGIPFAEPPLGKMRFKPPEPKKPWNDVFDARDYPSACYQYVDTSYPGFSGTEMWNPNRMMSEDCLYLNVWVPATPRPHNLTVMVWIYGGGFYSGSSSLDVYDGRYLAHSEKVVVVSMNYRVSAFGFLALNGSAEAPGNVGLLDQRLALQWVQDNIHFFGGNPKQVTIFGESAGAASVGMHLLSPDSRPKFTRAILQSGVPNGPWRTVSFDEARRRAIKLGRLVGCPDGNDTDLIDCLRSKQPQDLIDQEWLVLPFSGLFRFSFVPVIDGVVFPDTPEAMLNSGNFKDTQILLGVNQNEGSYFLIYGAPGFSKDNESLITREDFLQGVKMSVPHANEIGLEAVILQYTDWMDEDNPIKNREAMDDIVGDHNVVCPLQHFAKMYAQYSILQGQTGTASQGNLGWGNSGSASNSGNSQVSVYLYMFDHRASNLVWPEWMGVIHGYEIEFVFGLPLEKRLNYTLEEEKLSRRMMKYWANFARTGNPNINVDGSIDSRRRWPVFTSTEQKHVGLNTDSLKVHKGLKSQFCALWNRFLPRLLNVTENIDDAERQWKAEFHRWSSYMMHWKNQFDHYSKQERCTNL

[18] = target: Cholinesterase (Equus caballus) (UniProt P81908); experiment: Inhibition of equine BuChE at 1 uM by Ellman's method
Cholinesterase (Equus caballus), sequence (P81908 whole entry): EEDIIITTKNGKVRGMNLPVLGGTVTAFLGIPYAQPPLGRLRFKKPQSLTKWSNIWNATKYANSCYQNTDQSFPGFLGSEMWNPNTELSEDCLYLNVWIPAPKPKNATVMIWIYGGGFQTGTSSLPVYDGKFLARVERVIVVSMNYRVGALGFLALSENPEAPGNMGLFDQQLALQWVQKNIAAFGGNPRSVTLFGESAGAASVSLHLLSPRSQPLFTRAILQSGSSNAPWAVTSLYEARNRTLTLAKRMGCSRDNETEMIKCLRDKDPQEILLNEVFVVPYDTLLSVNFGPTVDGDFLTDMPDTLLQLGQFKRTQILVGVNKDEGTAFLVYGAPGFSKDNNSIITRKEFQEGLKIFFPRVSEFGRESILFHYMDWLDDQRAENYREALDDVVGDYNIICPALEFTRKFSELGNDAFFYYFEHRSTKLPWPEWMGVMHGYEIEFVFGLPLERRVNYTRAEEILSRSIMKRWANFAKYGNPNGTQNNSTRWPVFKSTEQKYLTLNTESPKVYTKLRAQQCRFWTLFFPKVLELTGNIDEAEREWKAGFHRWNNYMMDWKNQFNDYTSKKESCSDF

[19] = target: T3, Cholinesterase (Equus caballus, UniProt P81908); experiment: Inhibition of equine serum BuChE preincubated for 5 mins followed by substrate addition and measured after 5 mins using S-butyrylthiocholine iodide as substrate by Ellman's method
T3 sequence (P81908 whole entry): as above

[20] = target: Acetylcholinesterase (Homo sapiens, UniProt P22303); experiment: Inhibition of human AchE preincubated for 6 mins followed by substrate addition and measured upto 3 mins using acetylthiocholine iodide as substrate by Ellman's method
Acetylcholinesterase (Homo sapiens, UniProt P22303), sequence (P22303 whole entry): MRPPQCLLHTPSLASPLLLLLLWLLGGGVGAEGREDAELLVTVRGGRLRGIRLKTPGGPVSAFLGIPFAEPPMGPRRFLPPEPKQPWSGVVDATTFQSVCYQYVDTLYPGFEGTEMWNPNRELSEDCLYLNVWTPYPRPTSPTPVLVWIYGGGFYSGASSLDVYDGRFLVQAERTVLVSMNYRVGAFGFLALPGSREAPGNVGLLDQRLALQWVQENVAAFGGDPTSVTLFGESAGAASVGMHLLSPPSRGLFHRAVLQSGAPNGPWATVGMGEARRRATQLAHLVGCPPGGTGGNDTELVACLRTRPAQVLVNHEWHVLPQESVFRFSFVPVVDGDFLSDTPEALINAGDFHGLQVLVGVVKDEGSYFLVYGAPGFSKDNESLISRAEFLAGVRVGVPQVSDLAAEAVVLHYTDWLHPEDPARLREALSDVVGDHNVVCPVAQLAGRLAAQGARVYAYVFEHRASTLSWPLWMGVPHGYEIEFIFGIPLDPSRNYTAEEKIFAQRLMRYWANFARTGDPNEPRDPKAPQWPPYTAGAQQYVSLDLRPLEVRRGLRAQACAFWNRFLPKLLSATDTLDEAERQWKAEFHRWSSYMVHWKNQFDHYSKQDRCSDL

[21] = target: T1, Cholinesterase; experiment: Inhibition of human BuchE preincubated for 6 mins followed by substrate addition and measured upto 3 mins using acetylthiocholine iodide as substrate by Ellman's method
[22] = target: T2, Acetylcholinesterase; experiment: Inhibition of electric eel AChE incubated for 15 mins using acetylthiocholine as substrate by Ellman's method
[23] = target: T4, Amine oxidase [flavin-containing] A (Homo sapiens, UniProt P21397); experiment: Inhibition of recombinant human MAO-A assessed as measuring amount of 4-hydroxyquinoline using kynuramine as substrate incubated for 30 mins by fluorescence spectrophotometry
T4 sequence (P21397 whole entry): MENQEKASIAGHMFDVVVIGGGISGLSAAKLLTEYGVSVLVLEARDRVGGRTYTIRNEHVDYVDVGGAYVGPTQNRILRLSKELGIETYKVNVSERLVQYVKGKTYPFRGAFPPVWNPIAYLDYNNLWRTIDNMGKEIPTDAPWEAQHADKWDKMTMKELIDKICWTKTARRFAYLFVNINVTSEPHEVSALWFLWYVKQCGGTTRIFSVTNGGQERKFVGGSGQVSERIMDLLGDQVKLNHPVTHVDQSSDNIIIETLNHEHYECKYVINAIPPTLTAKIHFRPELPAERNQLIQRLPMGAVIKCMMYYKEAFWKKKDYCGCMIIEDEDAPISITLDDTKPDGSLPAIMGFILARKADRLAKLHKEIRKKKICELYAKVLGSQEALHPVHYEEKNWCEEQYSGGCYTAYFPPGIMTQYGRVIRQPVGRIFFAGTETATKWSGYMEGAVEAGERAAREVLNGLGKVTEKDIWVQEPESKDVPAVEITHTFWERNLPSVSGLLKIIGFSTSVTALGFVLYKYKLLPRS

[24] = target: Amyloid-beta precursor protein (Homo sapiens) (UniProt P05067); experiment: Inhibition of self-induced amyloid beta (1 to 42) (unknown origin) aggregation at 25 uM incubated for 24 hrs in dark by ThT-based fluorimetric assay
[25] = target: T3, Cholinesterase; experiment: Inhibition of equine BuChE incubated for 15 mins using butyrylthiocholine as substrate by Ellman's method
[26] = target: T5, Amine oxidase [flavin-containing] B (Homo sapiens, UniProt P27338); experiment: Inhibition of recombinant human MAO-B assessed as measuring amount of 4-hydroxyquinoline using kynuramine as substrate incubated for 30 mins by fluorescence spectrophotometry
T5 sequence (P27338 whole entry): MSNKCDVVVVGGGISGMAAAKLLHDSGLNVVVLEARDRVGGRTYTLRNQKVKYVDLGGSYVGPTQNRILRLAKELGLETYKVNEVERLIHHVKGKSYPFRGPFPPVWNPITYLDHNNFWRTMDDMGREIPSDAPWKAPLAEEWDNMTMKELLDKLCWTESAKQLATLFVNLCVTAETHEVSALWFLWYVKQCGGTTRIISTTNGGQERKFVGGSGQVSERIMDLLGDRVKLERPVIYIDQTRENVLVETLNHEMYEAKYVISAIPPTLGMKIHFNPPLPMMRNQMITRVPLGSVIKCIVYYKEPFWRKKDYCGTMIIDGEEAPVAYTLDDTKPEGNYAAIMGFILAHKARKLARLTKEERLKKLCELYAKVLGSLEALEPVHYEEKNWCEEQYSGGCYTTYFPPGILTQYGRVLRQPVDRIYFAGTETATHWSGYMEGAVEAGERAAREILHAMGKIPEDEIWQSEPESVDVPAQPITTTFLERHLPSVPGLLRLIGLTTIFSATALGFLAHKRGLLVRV

[27] = target: Amyloid-beta precursor protein (Homo sapiens) (UniProt P05067); experiment: Inhibition of self-induced amyloid beta (1 to 42) (unknown origin) aggregation assessed as disaggregation at 25 uM incubated for 24 hrs in dark by ThT-based fluorimetric assay
[28] = target: Amyloid-beta precursor protein (Homo sapiens) (UniProt P05067); experiment: Inhibition of self-induced amyloid beta (1 to 40) (unknown origin) aggregation at 20 uM incubated for 48 hrs by ThT-based fluorimetric assay

## COc1cc(/C=C/C(=O)O)ccc1O [FERULATE]
[1]
  Activity: 8.9%
[2]
  pIC50: 4.77
[3]
  Activity: 0.34
[4]
  pIC50: 4.19
[5]
  pIC50: 4.43

## CCCCNC(=O)O[C@@H]1C[C@H]2O[C@@H](OC(=O)/C=C/c3ccc(O)c(OC)c3)C[C@H]2O1
[6]
  pIC50: 6.37

## COc1cc(/C=C/C(=O)NCCC2CCN(Cc3ccccc3)CC2)cc(OC)c1O
[7]
  pIC50: 6.41
[8]
  pIC50: 4.60
[9]
  Activity: 1.78 equiv

## O=C(NCc1ccccc1)C(c1ccnc2ccccc12)N(Cc1ccccc1)C(=O)/C=C/c1ccc(O)c(O)c1 (centres undefined)
[10]
  Activity: 4.98 equiv
[11]
  Activity: > 77%

## CCCCNC(=O)O[C@@H]1C[C@H]2O[C@@H](OC(=O)CCCCC3CCSS3)C[C@H]2O1 (some centres undefined)
[6]
  pIC50: 6.77

## COc1ccc(/C=C/C(=O)NCCC2CCN(Cc3ccccc3)CC2)cc1O
[8]
  pIC50: 3.12

## O=C(/C=C/c1ccc(O)c(O)c1)Nc1cccc2ccccc12
[12]
  pIC50: 4.68

## CCNC(=O)O[C@@H]1C[C@H]2O[C@@H](OC(=O)CCCCC3CCSS3)C[C@H]2O1 (some centres undefined)
[13]
  Activity: 0.163 equiv

## COc1ccc(/C=C/C(O)NCCCNc2c3c(nc4ccccc24)CCCC3)cc1OC (centres undefined)
[14]
  inhibition: 56.5%
[15]
  pIC50: 7.05
[16]
  Activity: 16.8%

## COc1cc(/C=C/C(=O)N(CCC2CCN(Cc3ccccc3)CC2)CC(=O)Nc2c(C)cccc2Cl)ccc1O
[13]
  Activity: 6.9 equiv
[17]
  inhibition: 24.8%
[18]
  inhibition: 57.3%

## O=C(/C=C/c1cc(O)c(O)c(O)c1)NCCCCCC[P+](c1ccccc1)(c1ccccc1)c1ccccc1
[19]
  pIC50: 6.96

## COc1cc(/C=C/C(=O)OCCCCCN(C)Cc2cccc(OC(=O)N(C)C)c2)ccc1O
[9]
  Activity: 1.26 µM
[20]
  pIC50: 7.71
[21]
  pIC50: 9.23

## COc1cc(/C=C/C(=O)N2CCc3ccccc3C2)ccc1OCCCCN(CNCc1ccccc1)CNCc1ccccc1
[22]
  pIC50: 4.92
[23]
  pIC50: 5.20
[13]
  Activity: 0.52 equiv
[24]
  inhibition: 59.3%
[25]
  pIC50: 5.05
[26]
  pIC50: 5.07
[27]
  inhibition: 43.8%

## O=C(NCc1ccccc1)C(c1cnc2ccccc2c1)N(Cc1ccccc1)C(=O)/C=C/c1ccc(O)c(O)c1 (centres undefined)
[10]
  Activity: 5.48 equiv
[11]
  Activity: 89.1%
[28]
  inhibition: 66.4%

## COc1cc(/C=C/C(=O)O)ccc1S
[2]
  pIC50: 4.70
[3]
  Activity: 0.34
[4]
  pIC50: 4.32
[5]
  pIC50: 5.37
